Assay results: patent US10220053B2, “Methods and compositions for modulating cancer stem cells” (University of Canberra, priority 2013, dated 2019)
“Also recorded” adds a separate entry of the source.

Key:
MDA-MB 231 cells [1] = assay: FACS analysis of CD44high CD24low CSC subpopulation, Basal/metastatic model; assay type: cell-based, human; conditions: NCD38 5 μM, FIGS. 7A and B
Method: (§1) Cells from each well/flask were harvested by means of trypsin treatment followed by two washes with PBS. Washed cells then re-suspended in an antibody cocktail consisting anti-CD44-APC, anti-CD24-PE antibodies (details in Table 5) and Hoechst 33258 dye (final dilution of 1:1000) (Invitrogen, Carlsbad, Calif.) in 1% FCS-PBS solution. Cells re-suspended in antibody cocktail were incubated for 20 minutes at 4° C. Cells were next washed twice with PBS and re-suspended in 1% FCS-PBS solution (volume based on cell number) and kept on ice until analyzed by FACS. Forward scatter (FSC) and side scatter parameters were selected with FITC fluorochrome excited by 488 nm argonion laser, PE fluorochrome excited by 488 nm and Hoechst fluorochrome excited by 350 nm helium-cadmium UV laser.
(§2) Flow Cytometry data was produced using either BD FACS LSR Flow Cytometer (Becton Dickinson Biosciences) or BD FACS Aria™ II Flow Cytometer (Becton Dickinson Biosciences) and analyzed using the data acquisition software CellQuest Pro (Becton Dickinson Biosciences) and FlowJo (Tree Star Inc., Ashland, Oreg.) software at the MCRF facility, JCSMR, ANU, Canberra, Australia. Single colour controls were used to set compensation parameters. Isotype controls were used for all corresponding primary antibodies in each experiment. […]

MCF-7 cells [2] = assay: FACS analysis of CD44high CD24low CSC-like subpopulation, MCF-IM model (PMA-stimulated MCF-7); assay type: cell-based, human; conditions: NCD38 5 μM for 17 hr prior to PMA 0.65 ng/μl for 60 hours, FIGS. 6A and B
Method: MCF-7 cells were seeded one day before stimulation at a set density according to the experimental demand. Potential inducers of EMT were tested including Phorbol 12-Myristate 13-acetate (PMA) (Sigma-Aldrich, St. Louis, Mo.), and TGF β (R&D systems, Minneapolis, Minn.) at various concentrations and incubation length as specified in Table 6.
as §1, with “Forward scatter (FSC) and side scatter parameters were selected with FITC fluorochrome excited by 488 nm argonion laser, PE fluorochrome excited by 488 nm and Hoechst fluorochrome excited by 350 nm helium-cadmium UV laser.” left out
as §2, with “Australia.” for “Australia. Single colour controls were used to set compensation parameters. Isotype controls were used for all corresponding primary antibodies in each experiment.”

MCF-7 cells [3] = assay: Mammosphere assay; assay type: cell-based, human; conditions: MCF-IM model, NCD38 5 μM for 17 hr prior to PMA 0.65 ng/ml for 6 days, mammospheres larger than 60 μm counted
Method: The following mammosphere culture media components were purchased from StemCell Technologies Inc., BC, Canada: Mammocult Basal medium (Human) (catalogue number-05621), Mammocult Proliferation Supplements (Human) (catalogue number-05622), heparin (catalogue number-07904) and hydrocortisone (catalogue number-[…]). Hydrocortisone powder was freshly dissolved into mammocult basal medium to get 10^−4M solution on the day of experiment. 50 mL of Mammocult complete media was then prepared by addition of 45 mL Mammocult basal medium, 5 mL mammocult proliferation supplements, 100 μL of the 0.2% heparin stock, 500 μL of 10^−4M stock of hydrocortisone and 50 μL of the PNS. Mammocult complete media was either used on same day or stored for not more than 7 days at 4° C.
MCF-7 cells were grown in a 175 cm^2 cell culture flask and harvested using a cell scraper (Zellschaber, Switzerland) or FACS sorted as specified below. Importantly trypsin treatment was never used for harvesting cells as it interferes with the mammosphere assay. Harvested cells were then re-suspended in 1 mL mammocult complete media and centrifuged at 500×g for 3 minutes at 20° C. The cell pellet was then re-suspended in 1 mL mammocult complete media before counting the cells on the Vi-CELL counter. […] Mammospheres larger than 60 μm were counted per well on day 7 and pictures were taken with an Olympus microscope. […]

MDA-MB 231 cells [4] = assay: Phase contrast microscopy of EMT/MET, Basal/metastatic model; assay type: cell-based, human; conditions: NCD38 5 μM, FIG. 7C
Method: Phase contrast microscopy was utilized for EMT and wound healing assays under 10× or 20× magnification of Olympus Fluorescence 1×71 microscope. Images were captured and analyzed as described above except that wound healing assay pictures were also analyzed by Image J software (Free software in Public domain developed by NIH).

MDA-MB-231 cells [5] = assay: In vivo murine xenograft model, tumor size; set-up: species or system BALB/c female nude mice
Method: (§3) To monitor the effect of LSD1 inhibitors in vivo on tumor recurrence, in vivo murine xenograft model of breast cancer recurrence was used. The MDA-MB 231 cell line model, which is one of the most robust and well-established models was used in 6 weeks old BALB/c female nude mice. 5×10^6 MDA MB 231 cells were injected in the mammary fat pad of each mouse. […] Once the tumors reach 50 mm^3 volume size (determined by caliper measurement), treatments were initiated. Mice were monitored until tumors reach 500 mm^3 and sacrificed for collection of tumors. Each treatment group consisted 14 mice each (5 mice for tumor growth curve+3 mice each for tumor collection at 3 time points-treatment start day-week 0, chemotherapy tumor reduction-approx. week 4 and until tumor reach 500 mm^3 approx. week 7). Tumor volumes were measured every week and three mice from each group were sacrificed for IHC, FACS, and RNA extraction at above mentioned three time points.
5. Mice were then injected with 50 μL of the Matrigel™+5×10^6 cell suspension in PBS using 26″ needles and isoflurane as an anesthetic. Each 50 μL of the mixture contains 2×10^6 MDA-MB-231 cells.
7. Measurements for tumor volume began at day 7 post injection of MDA-MB-231. Then the tumor volumes were measured daily till 15 May 2014.
Treatment of mice started at day 16 post injection of MDA-MB-231, where tumors roughly reached a volume of 50 mm^3.
Group B: 4 mg/kg of docetaxel (11 mice)
Group C: 100 mg/kg of pargyline (11 mice)
Group D: 4 mg/kg of docetaxel+100 mg/kg of pargyline (11 mice)

MDA-MB-231 cells [6] = assay: In vivo murine xenograft model, CSC subpopulation of tumors (FACS, CD44 mRNA); set-up: species or system BALB/c female nude mice; conditions: pargyline along with docetaxel
Method: as §3
At week 7 post treatment, the remaining tumor samples were collected for flow cytometry with CD44, CD24 and Hoechst staining. Remaining sample was used for RNA extraction.
1. Tumors were collected in 5 mL of DMEM supplemented with 2.5% FCS in 15 mL tubes.
8. A total number of 2×10^5 cells were stained for CD44-APC, CD24-PE and Hoechst. […]

Question: Which “CSC formation (CD44high CD24low CSC-like subpopulation) by FACS” value (MDA-MB 231 cells [1]) does the source give for `O=C(N[C@@H](CCCCN[C@@H]1C[C@H]1c1ccccc1)C(=O)NCc1cccc(Cl)c1)c1ccc(-c2ccccc2)cc1.O=C(O)C(F)(F)F` [NCD38] here?
Answer: Its value is “inhibits CD44 high CD24 low-CSC-like subpopulation”.

Question: What about the “CSC formation (CD44high CD24low CSC-like subpopulation) by FACS” value (MDA-MB 231 cells [1]; listed as NCD-38) of the same molecule?
Answer: The value was “decrease of CSC formation”.

Question: What about the “CSC formation (CD44high CD24low CSC-like subpopulation) monitored by FACS” value (MCF-7 cells [2]) of the same molecule?
Answer: The value was “inhibits CD44 high CD24 low-CSC-like subpopulation”.

Question: What about the “CSC formation (CD44high CD24low CSC-like subpopulation) monitored by FACS” value (MCF-7 cells [2]; listed as NCD-38) of the same molecule?
Answer: The value was “inhibition CSC formation”.

Question: What about the “CSC formation monitored by mammosphere assay” value (MCF-7 cells [3]) of the same molecule?
Answer: Its value is “reduce mammosphere formation”.

Question: And the “CSC formation monitored by mammosphere assay” value (MCF-7 cells [3]; listed as NCD-38)?
Answer: Its value is “inhibition CSC formation”.

Question: And the “mesenchymal to epithelial transition / EMT (phase contrast microscopy)” value (MDA-MB 231 cells [4])?
Answer: Its value is “inhibit EMT”.

Question: And the “mesenchymal to epithelial transition / EMT (phase contrast microscopy)” value (MDA-MB 231 cells [4]; listed as NCD-38)?
Answer: The value was “conversion of mesenchymal cells in to epithelial cells”.

Question: For `C#CCN(C)Cc1ccccc1` [pargyline], which tumor size (MDA-MB-231 cells [5]; pargyline 100 mg/kg in combination with docetaxel 4 mg/kg, mice xenograft, FIG. 8 (week four), FIG. 9) is on record?
Answer: The tumor size was “reduced tumor size; also recorded: reduces size of tumor”.

Question: And the tumor volume (MDA-MB-231 cells [5]; pargyline in combination with docetaxel, after seven weeks of treatment initiation, FIG. 9B)?
Answer: The tumor volume was “reduces volume and weight of tumor”.

Question: And the tumor weight (MDA-MB-231 cells [5]; pargyline in combination with docetaxel, after seven weeks of treatment, FIG. 9A)?
Answer: The tumor weight was “reduces volume and weight of tumor”.

Question: And the “CSC subpopulation measured by transcript (CD44 mRNA expression of dissected tumors)” value (MDA-MB-231 cells [6]; real-time PCR, FIG. 10B)?
Answer: Its value is “reduced CSC subpopulation”.

Question: What about the “CSC subpopulation of tumors measured by FACS” value (MDA-MB-231 cells [6]; seven weeks of treatment, FIG. 10A) of the same molecule?
Answer: Its value is “reduced CSC subpopulation; also recorded: reduces cancer stem cells”.
